Laboratory results taken from US20230099204A1, “PHARMACEUTICAL COMPOSITION FOR PREVENTION OR TREATMENT OF CANCER IN WHICH KRAS MUTATION AND ACTIVATED RON ARE PRESENT” (WELLMARKER BIO CO., LTD., priority 2020, published 2023).
Where a name gives a salt, the structure may show the parent alone.

Experiments:
SNUC2A = experiment: MTS assay, cytotoxicity on colorectal cancer cell line SNUC2A; type: cell-based; settings: RON mutation negative, KRAS G12D, 72 hours
Protocol: (§1) MTS assay was performed to compare cytotoxicity of the compounds of Example 1, Example 2, Example 3, Example 4, Example 5, Example 6, and positive control 1 on a colorectal cancer cell line, and a cell death rate of the colorectal cancer cell line was analyzed to compare anticancer activity of the compounds.
(§2) The MTS assay was performed by seeding each colorectal cell line in a 96-well plate at 1,000 cells per well, and after 24 hours, performing treatment with the compounds of Examples 1 to 6 and positive control 1 at various concentrations (0.000001 μM to 10 μM) in 100 μL of 10% FBS-RPMI medium (WELGENE Inc.) per well. The cells were incubated for 72 hours. Then, 20 μL of MTS solution (Promega) was added thereto, and the cells were incubated for 2 hours. Then, the absorbance was measured at 490 nm. The IC50 values for the compounds of Examples 1 to 6 and positive control 1 were calculated using GraphPad Prism™ 5 to investigate cytotoxicity.

HCT8 = experiment: MTS assay, cytotoxicity on colorectal cancer cell line HCT8; type: cell-based; settings: Homo sapiens, HCT-8, RON wt, KRAS G13D, 72 hours
Protocol: as §1, §2

DLD1 = experiment: MTS assay, cytotoxicity on colorectal cancer cell line DLD1; type: cell-based; settings: Homo sapiens, DLD-1, RON wt, KRAS G13D, 72 hours
Protocol: as §1, §2

HCT15 = experiment: MTS assay, cytotoxicity on colorectal cancer cell line HCT15; type: cell-based; settings: Homo sapiens, HCT-15, RON Δ160, KRAS G13D, 72 hours
Protocol: as §1, §2

SW480 = experiment: MTS assay, cytotoxicity on colorectal cancer cell line SW480; type: cell-based; settings: Homo sapiens, RON Δ155, KRAS G12V, 72 hours
Protocol: as §1, §2

SW620 [1] = experiment: MTS assay, cytotoxicity on colorectal cancer cell line SW620; type: cell-based; settings: Homo sapiens, SW-620, RON Δ155, KRAS G12V, 72 hours
Protocol: as §1, §2

T84 [2] = experiment: MTS assay, cytotoxicity on colorectal cancer cell line T84; type: cell-based; settings: Homo sapiens, RON Δ165, KRAS G13D, 72 hours
Protocol: as §1, §2

[3] = test system: colorectal cancer cell line; experiment: MTS assay, summary over the colorectal cancer cell lines; type: cell-based; settings: summary in words of Table 1
Protocol: as §1, §2

T84 [4] = experiment: Cell death induction, trypan blue cell counting, T84; type: cell-based; settings: T84 with a RON mutation; 1 μM; 48 hours; FIG. 1
Protocol: (§3) Based on the results above, to identify the cell death-inducing ability of the compounds of Example 1 and positive control 1, which are representative materials, preparation was performed by seeding respective colorectal cancer cell lines SNU-[…], HCT8, T84, and SW620 onto 60-mm plates at 3×10^5 cells, and then incubation was performed for 24 hours. Thereafter, treatment with each of Example 1 and positive control 1 was performed at 1μM and incubation was performed for 48 hours. After 48 hours, the cells and cell suspensions were collected by treatment with trypsin, resuspended in 1× PBS and stained using a trypan blue solution (Sigma, cat# T8154). The stained cells were counted using a hemocytometer. Cell counting was repeated, and the mean and the standard deviation were calculated.

SW620 [5] = experiment: Cell death induction, trypan blue cell counting, SW620; type: cell-based, human; settings: 1 μM, 48 hours; for cell death rate: SW620 (KRAS G12V/mRON Δ155), FIG. 2
Protocol: as §3, with “48 hours. In addition, preparation was performed by seeding the cell line SW620 onto a 60-mm plate at 3×10^5 cells, and then incubation was performed for 24 hours. Thereafter, treatment with each of Example 1, positive control 1, positive control 2, and positive control 3 was performed at 1 μM. After 48” for “48 hours. After 48”

[6] = test system: HCT8 (KRAS G13D/pTyr-wtRON(+)); experiment: Cell line HCT8-transplanted mouse model; type: in vivo, BALB/c nude mice; settings: 10 mg/kg, oral, once a day for 4 weeks
Protocol: 5-Week-old female BALB/c nude mice were purchased and acclimatized for 1 week. Then, human colorectal cancer patient-derived cell line SW620 (KRAS
G12V/mRON Δ155) at 5×10^6 cells/mouse was injected subcutaneously (100 μL) into the right dorsal side of the mice. The compound of Example 1 was orally administered when the tumor reached a size of about 100 mm^3. The drug was administered once a day for 4 weeks, and tumor size and mouse body weight were measured twice a week. After completion of the drug administration, the experimental animals were euthanized, and then the tumors were extracted and weighed for comparative analysis.
A portion of the extracted tumor tissue was fixed in 10% formalin and processed into a paraffin block. Then, the block was made into sections. Staining of the slide was performed through immunochemical staining. Another portion of the extracted tumor tissue was subjected to lysis, and then Western blotting was used to identify changes in expression of respective proteins.
The experiment was conducted in the same method as the procedure of Experimental Example 3, except that human colorectal cancer patient-derived cell line HCT8 (KRAS G13D/pTyr-wtRON(+)) was used in place of the human colorectal cancer patient-derived cell line SW620 (KRAS G12V/mRON Δ155), and the respective compounds of Example 1, positive control 1, and positive control 2 were administered.

Question: For `CCOc1ccn(-c2ccccc2)c(=O)c1C(=O)Nc1ccc(Oc2ccnc3cc(-c4ccc(CNCCOC)cn4)sc23)c(F)c1` [Example 2, 4-ethoxy-N-(3-fluoro-4-{[2-(5-{[(2-methoxyethyl)amino]methyl}pyridine-2-yl)thieno[3,2-b]pyridine-7-yl]oxy}phenyl)-2-oxo-1-phenyl-1,2-dihydropyridine-3-carboxamide hydrochloride], which IC50 (SNUC2A) is on record?
Answer: The IC50 was 4440 nM.

Question: And the IC50 (HCT8)?
Answer: Its IC50 is 260 nM.

Question: And the IC50 (DLD1)?
Answer: The IC50 was 210 nM.

Question: What about the IC50 (HCT15) of the same compound?
Answer: The IC50 was 220 nM.

Question: And the IC50 (SW480)?
Answer: The IC50 was 1250 nM.

Question: What about the IC50 (SW620 [1]) of the same compound?
Answer: Its IC50 is 370 nM.

Question: And the IC50 (T84 [2])?
Answer: The IC50 was 210 nM.

Question: How did the IC50 (SNUC2A) turn out when `CCOc1ccn(-c2ccccc2)c(=O)c1C(=O)Nc1ccc(Oc2ccnc3cc(-c4ccc(CN5CCN(C)CC5)cn4)sc23)c(F)c1` [Example 3, 4-ethoxy-N-{3-fluoro-4-[(2-{5-[(4-methylpiperazin-1-yl)methyl]pyridin-2-yl}thieno[3,2-b]pyridin-7-yl)oxy]phenyl}-2-oxo-1-phenyl-1,2-dihydropyridine-3-carboxamide hydrochloride] was run?
Answer: The IC50 was 4600 nM.

Question: And the IC50 (HCT8)?
Answer: Its IC50 is 480 nM.

Question: What about the IC50 (DLD1) of the same compound?
Answer: Its IC50 is 300 nM.

Question: What about the IC50 (HCT15) of the same compound?
Answer: The IC50 was 390 nM.

Question: What about the IC50 (SW480) of the same compound?
Answer: Its IC50 is 660 nM.

Question: What about the IC50 (SW620 [1]) of the same compound?
Answer: The IC50 was 260 nM.

Question: What about the IC50 (T84 [2]) of the same compound?
Answer: The IC50 was 220 nM.

Question: `Cn1cnc(-c2cc3nccc(Oc4ccc(NC(=O)c5c6c(cn(-c7ccc(F)cc7)c5=O)CCO6)cc4F)c3s2)c1` [Example 4] was tested. Which IC50 (SNUC2A) did it give?
Answer: The IC50 was 7530 nM.

Question: And the IC50 (HCT8)?
Answer: The IC50 was 1200 nM.

Question: What about the IC50 (DLD1) of the same compound?
Answer: Its IC50 is 660 nM.

Question: What about the IC50 (HCT15) of the same compound?
Answer: The IC50 was 1270 nM.

Question: What about the IC50 (SW480) of the same compound?
Answer: The IC50 was 670 nM.

Question: What about the IC50 (SW620 [1]) of the same compound?
Answer: Its IC50 is greater than 10000 nM.

Question: And the IC50 (T84 [2])?
Answer: Its IC50 is 170 nM.

Question: And the “efficiency / response in MTS assay over the cell lines” value [3]?
Answer: Its value is “high efficiency in the cell lines (HCT8 and DLD-1)”.

Question: Which results are given for `COc1cc2c(Oc3ccc(NC(=O)c4c5c(cn(-c6ccc(F)cc6)c4=O)CCO5)cc3F)ccnc2cc1OCCN1CCOCC1` [Example 5, N-(3-fluoro-4-((6-methoxy-7-(2-morpholinoethoxy)quinolin-4-yl)oxy)phenyl)-5-(4-fluorophenyl)-6-oxo-2,3,5,6-tetrahydrofuro[3,2-c]pyridine-7-carboxamide]?
Answer: IC50 (SNUC2A): 3820 nM; IC50 (HCT8): 780 nM; IC50 (DLD1): 230 nM; IC50 (HCT15): 390 nM; IC50 (SW480): 110 nM; IC50 (SW620 [1]): 1000 nM; IC50 (T84 [2]): 810 nM

Question: With `COc1cc2c(Oc3ccc(NC(=O)c4c5c(cn(-c6ccc(F)cc6)c4=O)CCO5)cc3F)ccnc2cc1OCCCN1CC(C#N)C1` [Example 6, N-(4-((7-(3-(3-cyanoazetidine-1-yl)propoxy)-6-methoxyquinoline-4-yl)oxy)-3-fluorophenyl)-5-(4-fluorophenyl)-6-oxo-2,3,5,6-tetrahydrofuro[3,2-c]pyridine-7-carboxamide] as the compound, how does the IC50 (SNUC2A) read?
Answer: Its IC50 is 1320 nM.

Question: What about the IC50 (HCT8) of the same compound?
Answer: Its IC50 is 330 nM.

Question: And the IC50 (DLD1)?
Answer: The IC50 was 170 nM.

Question: And the IC50 (HCT15)?
Answer: Its IC50 is 140 nM.

Question: And the IC50 (SW480)?
Answer: The IC50 was 320 nM.

Question: And the IC50 (SW620 [1])?
Answer: The IC50 was 110 nM.

Question: What about the IC50 (T84 [2]) of the same compound?
Answer: Its IC50 is 200 nM.

Question: With `CCOc1ccn(-c2ccc(F)cc2)c(=O)c1C(=O)Nc1ccc(Oc2ccnc(N)c2Cl)c(F)c1` [Positive control 1, N-{4-[(2-amino-3-chloro-4-pyridinyl)oxy]-3-fluorophenyl}-4-ethoxy-1-(4-fluorophenyl)-2-oxo-1,2-dihydro-3-pyridinecarboxamide, reference compound] as the compound, how does the IC50 (SNUC2A) read?
Answer: The IC50 was greater than 10000 nM.

Question: What about the IC50 (HCT8) of the same compound?
Answer: Its IC50 is 7320 nM.

Question: And the IC50 (DLD1)?
Answer: The IC50 was 4720 nM.

Question: What about the IC50 (HCT15) of the same compound?
Answer: Its IC50 is 3240 nM.

Question: What about the IC50 (SW480) of the same compound?
Answer: The IC50 was 3540 nM.

Question: And the IC50 (SW620 [1])?
Answer: Its IC50 is 5000 nM.

Question: What about the IC50 (T84 [2]) of the same compound?
Answer: The IC50 was 8400 nM.

Question: And the “efficiency / response in MTS assay over the cell lines” value [3]?
Answer: Its value is “high IC50 values in most cell lines”.

Question: What about the “cell death induction efficacy” value (T84 [4]) of the same compound?
Answer: The value was “little response”.

Question: And the cell death rate (SW620 [5])?
Answer: The cell death rate was “cell death was not induced”.

Question: And the “cell death induction efficacy” value (SW620 [5]; SW620 with a RON mutation, FIG. 1)?
Answer: Its value is “little response”.

Question: What about the “Tumor growth inhibition (TGI, %)” value [6] of the same compound?
Answer: Its value is −7.5 ± 36.3%.

Question: With `C[C@@H](Oc1cc(-c2cnn(C3CCNCC3)c2)cnc1N)c1c(Cl)ccc(F)c1Cl` [Positive control 2, reference compound] as the compound, how does the cell death rate (SW620 [5]) read?
Answer: Its cell death rate is “cell death was not induced”.

Question: And the “Tumor growth inhibition (TGI, %)” value [6]?
Answer: The value was 23.2 ± 7.8%.

Question: With `COc1cc2nccc(Oc3ccc(NC(=O)C4(C(=O)Nc5ccc(F)cc5)CC4)cc3)c2cc1OC` [Positive control 3, N-(4-{[6,7-bis(methyloxy)quinoline-4-yl]oxy}phenyl)-N′-(4-fluorophenyl)cyclopropane-1,1-dicarboxamide] as the compound, how does the cell death rate (SW620 [5]) read?
Answer: The cell death rate was “cell death was not induced”.
